The target in this experiment is T1, human FXR (Homo sapiens, UniProt Q96RI1).
T1 construct: expressed in transfected cells; host or cells: HEK293 cells stably carrying a 5xGal4-response-element firefly luciferase reporter, transiently transfected with pcDNA3.1-Gal4-FXR
T1 sequence (Q96RI1 262-486 limits assumed): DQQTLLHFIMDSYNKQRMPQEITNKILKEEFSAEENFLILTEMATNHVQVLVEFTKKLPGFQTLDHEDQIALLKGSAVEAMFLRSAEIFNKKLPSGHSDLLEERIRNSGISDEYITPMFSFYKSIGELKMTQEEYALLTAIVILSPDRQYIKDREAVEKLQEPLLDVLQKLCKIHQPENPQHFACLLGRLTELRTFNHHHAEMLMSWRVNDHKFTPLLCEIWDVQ
Briefly: transient human FXR/Gal4-luciferase reporter assay. Type of experiment: cell-based. The note with it: Gal4-hFXR transfected HEK293 reporter cells; relative to 8 μM GW-4064. An outline of the steps:
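Transient Gal4-hFXR LBD fusion (pcDNA3.1, Lipofectamine, overnight) expressed in a HEK293 reporter line stably bearing five Gal4 elements upstream of firefly luciferase, grown in charcoal/dextran-stripped FBS. Compound dilutions in DMSO incubated with cells overnight at 37° C, 5% CO2, before luciferase readout.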

For 20 compounds, EC50 results are on record in US11078198B2 (BRISTOL-MYERS SQUIBB COMPANY, priority 2017, dated 2021).

`O=C(O)c1ccc(N2CCC3(C=C(c4c(C(F)F)cnn4-c4ccccc4C(F)(F)F)C3)CC2)nc1` [Example 223]: the midpoint of the response, the EC50, lay at 0.205 µM.
Turning to `O=C(O)c1ccc2cc(N3CCC4(C=C(c5c(-c6ncccc6Cl)noc5C5CC5)C4)CC3)ccc2n1` [Example 152, 6-(2-(3-(3-Chloropyridin-2-yl)-5-cyclopropylisoxazol-4-yl)-7-azaspiro[3.5]non-1-en-7-yl)quinoline-2-carboxylic acid], a half-maximal response (EC50) required 1.63 µM.
In the case of `O=C(NS(=O)(=O)C1CC1)c1cc(OC(F)F)c2cc(N3CCC4(C=C(c5c(-c6cccnc6C(F)(F)F)noc5C5CC5)C4)CC3)ccc2n1` [Example 191, 6-(2-(5-Cyclopropyl-3-(2-(trifluoromethyl)pyridin-3-yl)isoxazol-4-yl)-7-azaspiro[3.5]non-1-en-7-yl)-N-(cyclopropylsulfonyl)-4-(difluoromethoxy)quinoline-2-carboxamide] it was 0.14 µM; in that of `O=C(O)c1cc(F)c2nc(N3CCC4(C=C(c5c(-c6c(F)cccc6Cl)noc5C5CC5)C4)CC3)sc2c1` [Example 136, 2-(2-(3-(2-Chloro-6-fluorophenyl)-5-cyclopropylisoxazol-4-yl)-7-azaspiro[3.5]non-1-en-7-yl)-4-fluorobenzo[d]thiazole-6-carboxylic acid], 0.037 µM.
The same measure for `Cn1cc(C(=O)O)c2ccc(N3CCC4(C=C(c5c(C(F)F)cnn5-c5ccccc5C(F)(F)F)C4)CC3)cc21` [Example 219, 6-(2-(4-(Difluoromethyl)-1-(2-(trifluoromethyl)phenyl)-1H-pyrazol-5-yl)-7-azaspiro[3.5]non-1-en-7-yl)-1-methyl-1H-indole-3-carboxylic acid]: 0.18 µM; for `CC(C)Oc1cc(C(=O)O)nc2ccc(N3CCC4(C=C(c5c(-c6c(Cl)cc(F)cc6Cl)noc5C5CC5)C4)CC3)cc12` [Example 110, 6-(2-(5-Cyclopropyl-3-(2,6-dichloro-4-fluorophenyl)isoxazol-4-yl)-7-azaspiro[3.5]non-1-en-7-yl)-4-isopropoxyquinoline-2-carboxylic acid]: 0.037 µM.
On to `O=C(O)CNC(=O)c1cc(F)c2nc(N3CCC4(C=C(c5c(-c6ccccc6C(F)(F)F)noc5C5CC5)C4)CC3)sc2c1` [Example 32, (2-(2-(5-Cyclopropyl-3-(2-(trifluoromethyl)phenyl)isoxazol-4-yl)-7-azaspiro[3.5]non-1-en-7-yl)-4-fluorobenzo[d]thiazole-6-carbonyl)glycine], for which a half-maximal effect (EC50) was put at 1.5 µM.
On to `O=C(O)c1cc(F)c2nc(N3CCC4(C=C(c5c(C(F)F)cnn5-c5c(Cl)cncc5Cl)C4)CC3)sc2c1` [Example 216, 2-(2-(1-(3,5-Dichloropyridin-4-yl)-4-(difluoromethyl)-1H-pyrazol-5-yl)-7-azaspiro[3.5]non-1-en-7-yl)-4-fluorobenzo[d]thiazole-6-carboxylic acid], for which the concentration for a half-maximal effect (EC50) (commonly the concentration needed to bring the measured effect to its halfway point) came out at 0.088 µM.
The same measure for `O=C(O)c1cc(OC(F)F)c2cc(N3CCC4(C=C(c5c(-c6ccncc6Cl)noc5C5CC5)C4)CC3)ccc2n1` [Example 74, 6-(2-(3-(3-Chloropyridin-4-yl)-5-cyclopropylisoxazol-4-yl)-7-azaspiro[3.5]non-1-en-7-yl)-4-(difluoromethoxy)quinoline-2-carboxylic acid]: 0.038 µM; for `Cc1nc(C(=O)O)c2ccc(N3CCC4(C=C(c5c(-c6c(Cl)cccc6Cl)noc5C5CC5)C4)CC3)cn12` [Example 127, 6-(2-(5-Cyclopropyl-3-(2,6-dichlorophenyl)isoxazol-4-yl)-7-azaspiro[3.5]non-1-en-7-yl)-3-methylimidazo[1,5-a]pyridine-1-carboxylic acid]: 0.267 µM.
In turn, `COc1cc(C(=O)O)nc2ccc(N3CCC4(C=C(c5c(-c6c(Cl)cc(F)cc6Cl)noc5C5CC5)C4)CC3)cc12` [Example 112, 6-(2-(5-Cyclopropyl-3-(2,6-dichloro-4-fluorophenyl)isoxazol-4-yl)-7-azaspiro[3.5]non-1-en-7-yl)-4-methoxyquinoline-2-carboxylic acid] gave a concentration for a half-maximal effect (EC50) of 0.054 µM.
The same measure for `NC(=O)c1cc(F)c2nc(N3CCC4(C=C(c5c(-c6c(Cl)cncc6Cl)noc5C5CC5)C4)CC3)sc2c1` [Example 202, 2-(2-(5-Cyclopropyl-3-(3,5-dichloropyridin-4-yl)isoxazol-4-yl)-7-azaspiro[3.5]non-1-en-7-yl)-4-fluorobenzo[d]thiazole-6-carboxamide]: 0.155 µM; for `Cn1nc(C(=O)O)c2ccc(N3CCC4(C=C(c5c(-c6c(Cl)cccc6Cl)noc5C5CC5)C4)CC3)cc21` [Example 125, 6-(2-(5-Cyclopropyl-3-(2,6-dichlorophenyl)isoxazol-4-yl)-7-azaspiro[3.5]non-1-en-7-yl)-1-methyl-1H-indazole-3-carboxylic acid]: 0.096 µM.
The same measure for `O=C(O)c1cc(C(F)(F)F)c2cc(N3CCC4(C=C(c5c(C(C6CC6)C6CC6)noc5C5CC5)C4)CC3)ccc2n1` [Example 212, 6-(2-(5-Cyclopropyl-3-(dicyclopropylmethyl)isoxazol-4-yl)-7-azaspiro[3.5]non-1-en-7-yl)-4-(trifluoromethyl)quinoline-2-carboxylic acid]: 1.55 µM; for `O=C(O)c1cccc(N2CCC3(CC2)COC(c2c(-c4ccccc4OC(F)(F)F)noc2C2CC2)O3)n1` (centres unmarked) [Example 44, 6-(2-(5-cyclopropyl-3-(2-(trifluoromethoxy)phenyl)isoxazol-4-yl)-1,3-dioxa-8-azaspiro[4.5]decan-8-yl)picolinic acid]: 5 µM; for `Cn1c(C(=O)O)cc2cc(N3CCC4(C=C(c5c(-c6ccccc6OC(F)(F)F)noc5C5CC5)C4)CC3)ncc21` [Example 172, 5-(2-(5-Cyclopropyl-3-(2-(trifluoromethoxy)phenyl)isoxazol-4-yl)-7-azaspiro[3.5]non-1-en-7-yl)-1-methyl-1H-pyrrolo[2,3-c]pyridine-2-carboxylic acid]: 2.37 µM.
In the case of `CC(C)c1onc(-c2c(Cl)cccc2Cl)c1C1=CC2(CCN(c3ccc4cc(C(=O)O)nnc4c3)CC2)C1` [Example 148, 7-(2-(3-(2,6-Dichlorophenyl)-5-isopropylisoxazol-4-yl)-7-azaspiro[3.5]non-1-en-7-yl) cinnoline-3-carboxylic acid] it was 0.548 µM; in that of `O=C(NS(=O)(=O)C1CC1)c1ccc2cc(N3CCC4(C=C(c5c(-c6c(Cl)cccc6Cl)noc5C5CC5)C4)CC3)ccc2n1` [Example 193, 6-(2-(5-Cyclopropyl-3-(2,6-dichlorophenyl)isoxazol-4-yl)-7-azaspiro[3.5]non-1-en-7-yl)-N-(cyclopropylsulfonyl)quinoline-2-carboxamide], 0.178 µM; in that of `O=C(O)c1cc(C(F)(F)F)c2cc(N3CCC4(C=C(c5c(-c6c(Cl)cccc6Cl)noc5C5CC5)C4)CC3)ccc2n1` [Example 83, 6-(2-(5-Cyclopropyl-3-(2,6-dichlorophenyl)isoxazol-4-yl)-7-azaspiro[3.5]non-1-en-7-yl)-4-(trifluoromethyl)quinoline-2-carboxylic acid], 0.038 µM.
`O=C(O)c1ccc2nc(N3CCC4(C=C(c5c(-c6c(Cl)cccc6Cl)noc5C5CC5)C4)CC3)sc2c1` [Example 24, 2-(2-(5-Cyclopropyl-3-(2,6-dichlorophenyl)isoxazol-4-yl)-7-azaspiro[3.5]non-1-en-7-yl)benzo[d]thiazole-6-carboxylic acid] showed a concentration giving a half-maximal response (EC50) of 0.017 µM.
